The structures appear in SMILES notation. Bounds are passed on as bounds.

The target in the experiment is CA II (Homo sapiens, UniProt P00918). Put plainly: esterase assay, p-nitrophenyl acetate hydrolysis. It counts as biochemical.
Consider `O=C1NS(=O)(=O)c2cc(-n3cc(CO[C@@H]4O[C@H](CO)[C@@H](O)[C@H](O)[C@H]4O)nn3)ccc21` [1a, saccharin-glycoconjugate 1a], for which the IC50 – broadly, the midpoint of a concentration-inhibition curve – was more than 2 µM.

`O=C1NS(=O)(=O)c2cc(-n3cc(CO[C@@H]4O[C@H](CO)[C@H](O)[C@H](O)[C@H]4O)nn3)ccc21` [1b, saccharin-glycoconjugate 1b] registered an IC50 of more than 2 µM.

Turning to `O=C1NS(=O)(=O)c2cc(-n3cc(CCO[C@@H]4O[C@H](CO)[C@H](O)[C@H](O)[C@H]4O)nn3)ccc21` [1c, saccharin-glycoconjugate 1c], the IC50 was more than 2 µM.

The values above are taken from paper PMC6492551 (Carbohydrate research, 2019).
